Reference: US8697710B2, “Optionally substituted 3-amino-4-(thioxo or imino)-4,5-dihydro-2H-pyrazolo [3,4-d]pyrimidin-6(7H)-ones” (Intra-Cellular Therapies, Inc., priority 2008, dated 2014)

Molecular target: Phosphodiesterase 1B (PDE1B)
Assay: Measurement of PDE1B inhibition in vitro using IMAP phosphodiesterase assay kit
Type: biochemical, bovine
Conditions: PDE1 inhibitory activity, IMAP fluorescence polarization, cGMP-fluorescein substrate
Description: Measurement of PDE1B Inhibition in Vitro Using IMAP Phosphodiesterase Assay Kit
Phosphodiesterase 1B (PDE1B) is a calcium/calmodulin dependent phosphodiesterase enzyme that converts cyclic guanosine monophosphate (cGMP) to 5′-guanosine monophosphate (5′-GMP). PDE can also convert a modified cGMP substrate, such as the fluorescent molecule cGMP-fluorescein, to the corresponding GMP-fluorescein. The generation of GMP-fluorescein from cGMP-fluorescein can be quantitated, using, for example, the IMAP (Molecular Devices, Sunnyvale, Calif.) immobilized-metal affinity particle reagent.
Briefly, the IMAP reagent binds with high affinity to the free 5′-phosphate that is found in GMP-fluorescein and not in cGMP-fluorescein. […] Small fluorophores that are bound up in a large, slowly tumbling, complex can be distinguished from unbound fluorophores, because the photons emitted as they fluoresce retain the same polarity as the photons used to excite the fluorescence.
In the phosphodiesterase assay, cGMP-fluorescein, which cannot be bound to IMAP, and therefore retains little fluorescence polarization, is converted to GMP-fluorescein, which, when bound to IMAP, yields a large increase in fluorescence polarization (Δmp). Inhibition of phosphodiesterase, therefore, is detected as a decrease in Δmp. […]
A decrease in GMP concentration, measured as decreased Δmp, is indicative of inhibition of PDE activity.

**Q.** With `C/N=c1/c2c(Nc3ccccc3)n(Cc3ccc(-c4ccccn4)cc3)nc2n(CC(C)C)c(=O)n1C` [Example 2, 7-Isobutyl-5-methyl-4-(methylimino)-3-(phenylamino)-2-(4-(pyridin-2-yl)benzyl)-4,5-dihydro-2H-pyrazolo[3,4-d]pyrimidin-6(7H)-one] as the compound, how does the IC50 read?
**A.** Its IC50 is < 200 nM.
